Measured values reported in PubChem BioAssay AID1918940 (Molecular Pharmacology Branch, DTP, NCI, 2023).

System: NCI-H211 complex spheroid viability
Assay: Anticancer human tumor NCI-H211 cell line growth inhibition [LSD1];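 also: luminescent viability read after seven days of drug exposure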;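 as to viability, T/C: 100% = DMSO vehicle control viability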
Details: for IC50: curve of first compound; for viability, T/C: stronger effect = lower value
Outline: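 Drug combinations with the LSD1 inhibitor iadademstat tested on tumor cells co-cultured as spheroids with endothelial cells and mesenchymal stem cells. Concentrations descended in half-log increments from clinical Cmax or 10 microM.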

[1] = second compound 0.1 µM, first compound 0.0316 µM
[2] = second compound 0.1 µM, first compound 0.1 µM
[3] = second compound 0.316 µM, first compound 0.0316 µM
[4] = second compound 0.316 µM, first compound 0.1 µM
[5] = second compound 1 µM, first compound 0.0316 µM
[6] = second compound 1 µM, first compound 0.1 µM
[7] = second compound 3.16 µM, first compound 0.0316 µM
[8] = second compound 3.16 µM, first compound 0.1 µM
[9] = second compound 10 µM, first compound 0.0316 µM
[10] = second compound 10 µM, first compound 0.1 µM
[11] = second compound 0.1 µM, first compound 0.000949 µM
[12] = second compound 0.1 µM, first compound 0.003 µM
[13] = second compound 0.1 µM, first compound 0.00949 µM
[14] = second compound 0.1 µM, first compound 0.03 µM
[15] = second compound 0.1 µM, first compound 0.0949 µM
[16] = second compound 0.1 µM, first compound 0.3 µM
[17] = second compound 0.316 µM, first compound 0.000949 µM
[18] = second compound 0.316 µM, first compound 0.003 µM
[19] = second compound 0.316 µM, first compound 0.00949 µM
[20] = second compound 0.316 µM, first compound 0.03 µM
[21] = second compound 0.316 µM, first compound 0.0949 µM
[22] = second compound 0.316 µM, first compound 0.3 µM
[23] = second compound 1 µM, first compound 0.000949 µM
[24] = second compound 1 µM, first compound 0.003 µM
[25] = second compound 1 µM, first compound 0.00949 µM
[26] = second compound 1 µM, first compound 0.03 µM
[27] = second compound 1 µM, first compound 0.0949 µM
[28] = second compound 1 µM, first compound 0.3 µM
[29] = second compound 3.16 µM, first compound 0.000949 µM
[30] = second compound 3.16 µM, first compound 0.003 µM
[31] = second compound 3.16 µM, first compound 0.00949 µM
[32] = second compound 3.16 µM, first compound 0.03 µM
[33] = second compound 3.16 µM, first compound 0.0949 µM
[34] = second compound 3.16 µM, first compound 0.3 µM
[35] = second compound 10 µM, first compound 0.000949 µM
[36] = second compound 10 µM, first compound 0.003 µM
[37] = second compound 10 µM, first compound 0.00949 µM
[38] = second compound 10 µM, first compound 0.03 µM
[39] = second compound 10 µM, first compound 0.0949 µM
[40] = second compound 10 µM, first compound 0.3 µM

## CC[C@@]1(O)C(=O)OCc2c1cc1n(c2=O)Cc2cc3c(CN(C)C)c(O)ccc3nc2-1 + NC1CCC(NC2CC2c2ccccc2)CC1
Second compound 0.1 µM
  IC50: 0.337 nM
Second compound 0.316 µM
  IC50: 0.355 nM
Second compound 1 µM
  IC50: 0.329 nM
Second compound 3.16 µM
  IC50: < 0.316 nM
Second compound 10 µM
  IC50: < 0.316 nM
Second compound 0.1 µM, first compound 0.000316 µM
  viability, T/C: 52.3%
Second compound 0.1 µM, first compound 0.001 µM
  viability, T/C: 11.6%
Second compound 0.1 µM, first compound 0.00316 µM
  viability, T/C: 2.63%
Second compound 0.1 µM, first compound 0.01 µM
  viability, T/C: 7.01%
[1]
  viability, T/C: 1.98%
[2]
  viability, T/C: 1.11%
Second compound 0.316 µM, first compound 0.000316 µM
  viability, T/C: 54.4%
Second compound 0.316 µM, first compound 0.001 µM
  viability, T/C: 11.1%
Second compound 0.316 µM, first compound 0.00316 µM
  viability, T/C: 1.88%
Second compound 0.316 µM, first compound 0.01 µM
  viability, T/C: 2.29%
[3]
  viability, T/C: 2.33%
[4]
  viability, T/C: 1.04%
Second compound 1 µM, first compound 0.000316 µM
  viability, T/C: 51.4%
Second compound 1 µM, first compound 0.001 µM
  viability, T/C: 10.3%
Second compound 1 µM, first compound 0.00316 µM
  viability, T/C: 3.14%
Second compound 1 µM, first compound 0.01 µM
  viability, T/C: 2.71%
[5]
  viability, T/C: 7%
[6]
  viability, T/C: 1.06%
Second compound 3.16 µM, first compound 0.000316 µM
  viability, T/C: 49%
Second compound 3.16 µM, first compound 0.001 µM
  viability, T/C: 9.4%
Second compound 3.16 µM, first compound 0.00316 µM
  viability, T/C: 2.42%
Second compound 3.16 µM, first compound 0.01 µM
  viability, T/C: 1.93%
[7]
  viability, T/C: 1.88%
[8]
  viability, T/C: 1.01%
Second compound 10 µM, first compound 0.000316 µM
  viability, T/C: 28.7%
Second compound 10 µM, first compound 0.001 µM
  viability, T/C: 6.59%
Second compound 10 µM, first compound 0.00316 µM
  viability, T/C: 1.13%
Second compound 10 µM, first compound 0.01 µM
  viability, T/C: 1.34%
[9]
  viability, T/C: 0.81%
[10]
  viability, T/C: 0.51%

## CCc1c2c(nc3ccc(O)cc13)-c1cc3c(c(=O)n1C2)COC(=O)[C@]3(O)CC + NC1CCC(NC2CC2c2ccccc2)CC1
Second compound 0.1 µM
  IC50: < 0.949 nM
Second compound 0.316 µM
  IC50: < 0.949 nM
Second compound 1 µM
  IC50: < 0.949 nM
Second compound 3.16 µM
  IC50: < 0.949 nM
Second compound 10 µM
  IC50: < 0.949 nM
[11]
  viability, T/C: 1.98%
[12]
  viability, T/C: 3.23%
[13]
  viability, T/C: 0.6%
[14]
  viability, T/C: 0.92%
[15]
  viability, T/C: 0.04%
[16]
  viability, T/C: 0.14%
[17]
  viability, T/C: 1.86%
[18]
  viability, T/C: 0.71%
[19]
  viability, T/C: 0.57%
[20]
  viability, T/C: 0.69%
[21]
  viability, T/C: 0.03%
[22]
  viability, T/C: 0.27%
[23]
  viability, T/C: 2.45%
[24]
  viability, T/C: 1.08%
[25]
  viability, T/C: 0.51%
[26]
  viability, T/C: 0.73%
[27]
  viability, T/C: 0.06%
[28]
  viability, T/C: 0.61%
[29]
  viability, T/C: 0.94%
[30]
  viability, T/C: 0.56%
[31]
  viability, T/C: 0.41%
[32]
  viability, T/C: 0.58%
[33]
  viability, T/C: 0.5%
[34]
  viability, T/C: 0.13%
[35]
  viability, T/C: 0.65%
[36]
  viability, T/C: 0.19%
[37]
  viability, T/C: 0.2%
[38]
  viability, T/C: 0.27%
[39]
  viability, T/C: 0.13%
[40]
  viability, T/C: 0.19%

## Nc1ccccc1NC(=O)c1ccc(CNC(=O)OCc2cccnc2)cc1 + NC1CCC(NC2CC2c2ccccc2)CC1
Second compound 0.1 µM
  IC50: 11.9 nM
Second compound 0.316 µM
  IC50: 13.2 nM
Second compound 1 µM
  IC50: 9.95 nM
Second compound 3.16 µM
  IC50: < 9.49 nM
Second compound 10 µM
  IC50: < 9.49 nM
[13]
  viability, T/C: 54.5%
[14]
  viability, T/C: 32.1%
[15]
  viability, T/C: 4.58%
[16]
  viability, T/C: 1.24%
Second compound 0.1 µM, first compound 0.949 µM
  viability, T/C: 0.63%
Second compound 0.1 µM, first compound 3 µM
  viability, T/C: 0.12%
[19]
  viability, T/C: 55.7%
[20]
  viability, T/C: 35.9%
[21]
  viability, T/C: 4.66%
[22]
  viability, T/C: 1.07%
Second compound 0.316 µM, first compound 0.949 µM
  viability, T/C: 0.8%
Second compound 0.316 µM, first compound 3 µM
  viability, T/C: 0.15%
[25]
  viability, T/C: 51%
[26]
  viability, T/C: 27.2%
[27]
  viability, T/C: 3.65%
[28]
  viability, T/C: 0.99%
Second compound 1 µM, first compound 0.949 µM
  viability, T/C: 0.68%
Second compound 1 µM, first compound 3 µM
  viability, T/C: 0.11%
[31]
  viability, T/C: 38%
[32]
  viability, T/C: 20.3%
[33]
  viability, T/C: 3.37%
[34]
  viability, T/C: 0.53%
Second compound 3.16 µM, first compound 0.949 µM
  viability, T/C: 0.39%
Second compound 3.16 µM, first compound 3 µM
  viability, T/C: 0.12%
[37]
  viability, T/C: 29.4%
[38]
  viability, T/C: 6.92%
[39]
  viability, T/C: 1%
[40]
  viability, T/C: 0.3%
Second compound 10 µM, first compound 0.949 µM
  viability, T/C: 0.22%
Second compound 10 µM, first compound 3 µM
  viability, T/C: 5.88%

## Nc1ccn(C2OC(CO)C(O)C2(F)F)c(=O)n1 (stereo not given) + NC1CCC(NC2CC2c2ccccc2)CC1
Second compound 0.1 µM
  IC50: < 0.949 nM
Second compound 0.316 µM
  IC50: < 0.949 nM
Second compound 1 µM
  IC50: < 0.949 nM
Second compound 3.16 µM
  IC50: < 0.949 nM
Second compound 10 µM
  IC50: < 0.949 nM
[11]
  viability, T/C: 2.51%
[12]
  viability, T/C: 2.16%
[13]
  viability, T/C: 2.36%
[14]
  viability, T/C: 1.86%
[15]
  viability, T/C: 2.26%
[16]
  viability, T/C: 2.41%
[17]
  viability, T/C: 2.59%
[18]
  viability, T/C: 2.18%
[19]
  viability, T/C: 2.35%
[20]
  viability, T/C: 2.12%
[21]
  viability, T/C: 2.8%
[22]
  viability, T/C: 2.37%
[23]
  viability, T/C: 2.5%
[24]
  viability, T/C: 1.98%
[25]
  viability, T/C: 2.28%
[26]
  viability, T/C: 2.01%
[27]
  viability, T/C: 2.14%
[28]
  viability, T/C: 2.46%
[29]
  viability, T/C: 2.06%
[30]
  viability, T/C: 3.05%
[31]
  viability, T/C: 2.05%
[32]
  viability, T/C: 1.95%
[33]
  viability, T/C: 2.15%
[34]
  viability, T/C: 2.13%
[35]
  viability, T/C: 1.03%
[36]
  viability, T/C: 0.96%
[37]
  viability, T/C: 1.05%
[38]
  viability, T/C: 0.79%
[39]
  viability, T/C: 0.64%
[40]
  viability, T/C: 1.61%

## O=C(c1cc(Cc2n[nH]c(=O)c3ccccc23)ccc1F)N1CCN(C(=O)C2CC2)CC1 + NC1CCC(NC2CC2c2ccccc2)CC1
Second compound 0.1 µM
  IC50: < 31.6 nM
Second compound 0.316 µM
  IC50: < 31.6 nM
Second compound 1 µM
  IC50: < 31.6 nM
Second compound 3.16 µM
  IC50: < 31.6 nM
Second compound 10 µM
  IC50: < 31.6 nM
[1]
  viability, T/C: 41.8%
[2]
  viability, T/C: 26.4%
Second compound 0.1 µM, first compound 0.316 µM
  viability, T/C: 6.09%
Second compound 0.1 µM, first compound 1 µM
  viability, T/C: 2.71%
Second compound 0.1 µM, first compound 3.16 µM
  viability, T/C: 2.42%
Second compound 0.1 µM, first compound 10 µM
  viability, T/C: 2.07%
[3]
  viability, T/C: 44.4%
[4]
  viability, T/C: 27.7%
Second compound 0.316 µM, first compound 0.316 µM
  viability, T/C: 6.03%
Second compound 0.316 µM, first compound 1 µM
  viability, T/C: 2.23%
Second compound 0.316 µM, first compound 3.16 µM
  viability, T/C: 2.6%
Second compound 0.316 µM, first compound 10 µM
  viability, T/C: 2.2%
[5]
  viability, T/C: 41.1%
[6]
  viability, T/C: 27.1%
Second compound 1 µM, first compound 0.316 µM
  viability, T/C: 5.68%
Second compound 1 µM, first compound 1 µM
  viability, T/C: 2.69%
Second compound 1 µM, first compound 3.16 µM
  viability, T/C: 3.18%
Second compound 1 µM, first compound 10 µM
  viability, T/C: 2.72%
[7]
  viability, T/C: 35.5%
[8]
  viability, T/C: 21.8%
Second compound 3.16 µM, first compound 0.316 µM
  viability, T/C: 4.95%
Second compound 3.16 µM, first compound 1 µM
  viability, T/C: 1.97%
Second compound 3.16 µM, first compound 3.16 µM
  viability, T/C: 2.43%
Second compound 3.16 µM, first compound 10 µM
  viability, T/C: 2.46%
[9]
  viability, T/C: 18.2%
[10]
  viability, T/C: 11.2%
Second compound 10 µM, first compound 0.316 µM
  viability, T/C: 1.78%
Second compound 10 µM, first compound 1 µM
  viability, T/C: 1.3%
Second compound 10 µM, first compound 3.16 µM
  viability, T/C: 1.25%
Second compound 10 µM, first compound 10 µM
  viability, T/C: 1.37%
